According to PubChem BioAssay AID493111 (The Scripps Research Institute Molecular Screening Center, 2011):
Active and inactive are the calls of the source. How the calls were made is not given here.

What was measured:
Experiment in all cases: LYPLA1/LYPLA2 inhibition and hydrolase selectivity, late-stage follow-up, selectivity assay for LYPLA1/LYPLA2 dual inhibitor project, biochemical, gel-based ABPP, fluorescence, proteome (AID 493111)
Conditions in all cases: fluorophosphonate-rhodamine competition, at 1.5 µM (top of the series)
ABHD11 = tested on: ABHD11
APEH = tested on: APEH
ESD = tested on: ESD
LYPLA1 = tested on: LYPLA1
LYPLA2 = tested on: LYPLA2

| Compound | inhibition (ABHD11) | inhibition (APEH) | inhibition (ESD) | inhibition (LYPLA1) | inhibition (LYPLA2) |
| --- | --- | --- | --- | --- | --- |
| O=C(N1CCOCC1)n1ncc(-c2ccccc2)n1 | 100% | 100% | 75% | 0% (inactive) | 0% (inactive) |
| O=C(N1CCOCC1)n1ncc(-c2ccc(OC(F)(F)F)cc2)n1 | 100% | 50% (inactive) | 75% (inactive) | 0% (inactive) | 0% (inactive) |
| CC(C)(O)c1cnn(C(=O)N2CCC(C(C)(C)C)CC2)n1 | 100% (inactive) | 0% (inactive) | 0% (inactive) | 100% | 100% |
| CC(C)(C)C1CCN(C(=O)n2ncc(C3(O)CCCCC3)n2)CC1 | 100% | 0% (inactive) | 50% (inactive) | 100% | 100% |
| O=C(N1CCOCC1)n1ccnn1 | 100% | 0% (inactive) | 0% (inactive) | 0% (inactive) | 0% (inactive) |
| O=C(N1CCOCC1)n1nnc2ccccc21 | 100% | 100% (inactive) | 50% (inactive) | 50% (inactive) | 0% (inactive) |
| COc1ccc2cc(-c3cnn(C(=O)N4CCCCC4)n3)ccc2c1 | 100% | 75% (inactive) | 100% | 100% (inactive) | 50% (inactive) |
| O=C(N1CCOCC1)n1ncc(-c2cc(F)cc(F)c2)n1 | 100% | 100% | 75% | 50% (inactive) | 0% (inactive) |
| O=C(N1CCCCC1)n1ccnn1 | 100% | 0% (inactive) | 0% (inactive) | 75% (inactive) | 0% (inactive) |

Other lines, results leading:

| inhibition (ABHD11) | inhibition (APEH) | inhibition (ESD) | inhibition (LYPLA1) | inhibition (LYPLA2) | Compound |
| --- | --- | --- | --- | --- | --- |
| 100% | 0% (inactive) | 100% (inactive) | 100% | 100% | COC1CCN(C(=O)n2ncc(C(O)(c3ccccc3)c3ccccc3)n2)CC1 |
| 100% | 50% (inactive) | 0% (inactive) | 0% (inactive) | 0% (inactive) | CCC1CCCCN1C(=O)n1ncc(C(O)(c2ccccc2)c2ccccc2)n1 (stereo not given) |
| 100% | 0% (inactive) | 50% (inactive) | 100% | 100% | CC(C)(C)C1CCN(C(=O)n2ncc(C(O)(c3ccccc3)c3ccccc3)n2)CC1 |
| 100% | 0% (inactive) | 0% (inactive) | 100% | 100% | O=C(N1CCC(C(O)(c2ccccc2)c2ccccc2)CC1)n1ncc(C(O)(c2ccccc2)c2ccccc2)n1 |
| 100% | 0% (inactive) | 100% | 100% | 0% (inactive) | O=C(N1CCCCC1)n1ncc(-c2ccc(Oc3ccccc3)cc2)n1 |
| 100% | 50% (inactive) | 50% (inactive) | 100% | 50% (inactive) | O=C(N1CCOCC1)n1ncc(C(O)(c2ccccc2)c2ccccc2)n1 |
| 100% | 0% (inactive) | 50% (inactive) | 100% | 100% | O=C(N1CCC(Cc2ccccc2)CC1)n1ncc(C(O)(c2ccccc2)c2ccccc2)n1 |
| 100% | 0% (inactive) | 75% | 100% | 75% | O=C(N1CCCCC1)n1ncc(C(O)c2ccccc2)n1 (stereo not given) |
| 100% | 50% (inactive) | 100% | 100% | 100% | O=C(N1CCCCC1)n1ncc(C(O)(c2ccccc2)c2ccccc2)n1 |
| 100% | 100% | 75% (inactive) | 100% | 100% | CC1CCN(C(=O)n2ncc(C(O)(c3ccccc3)c3ccccc3)n2)CC1 |
| 100% | 0% (inactive) | 50% (inactive) | 100% | 100% | O=C(N1CCCC(Cc2ccccc2)C1)n1cc(C(O)(c2ccccc2)c2ccccc2)nn1 (stereo not given) |
